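Values below derive from 48-hour exposures of cells grown in 96-well plates, with endpoints linearly interpolated between the two concentrations bracketing the appropriate inhibition level. TGI marks complete inhibition of growth.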
Assays:
Test in all cases: NCI anticancer screen, dose series, 48 h
COLO 205 colon = test system: COLO 205 colon
DLD-1 colon = test system: DLD-1 colon
DMS 273 small cell lung = test system: DMS 273 small cell lung
HOP-18 NSCLC = test system: HOP-18 NSCLC
KM20L2 colon = test system: KM20L2 colon
LOX IMVI melanoma = test system: LOX IMVI melanoma
M19-MEL melanoma = test system: M19-MEL melanoma
NCI-H226 lung = test system: NCI-H226 lung
RPMI-8226 leukemia = test system: RPMI-8226 leukemia
SNB-75 CNS = test system: SNB-75 CNS
SNB-78 CNS = test system: SNB-78 CNS
XF 498 CNS = test system: XF 498 CNS
MDA-N = test system: MDA-N
NCI/ADR-RES ovarian = test system: NCI/ADR-RES ovarian
T-47D breast = test system: T-47D breast

`CN1CCC(C(=O)NNc2ccccc2)CC1` was tested, and the TGI (COLO 205 colon) was 10.2 µM, the TGI (DLD-1 colon) was > 100 µM and the TGI (DMS 273 small cell lung) was > 31.3 µM. For the same molecule, the TGI (HOP-18 NSCLC) was > 100 µM, the TGI (KM20L2 colon) was > 33.6 µM and the TGI (LOX IMVI melanoma) was 11.3 µM. For the same molecule, the TGI (M19-MEL melanoma) was > 79.7 µM, the TGI (NCI-H226 lung) was > 100 µM and the TGI (RPMI-8226 leukemia) was > 100 µM. For the same molecule, the TGI (SNB-75 CNS) was > 100 µM, the TGI (SNB-78 CNS) was > 100 µM and the TGI (XF 498 CNS) was > 100 µM.

In the case of `CN/C=C(/c1ccc(OC)cc1)C(O)c1ccc(OC)c(OC)c1` (stereo not drawn), the TGI (COLO 205 colon) is reported as > 100 µM, the TGI (DLD-1 colon) is reported as > 100 µM and the TGI (DMS 273 small cell lung) is reported as > 100 µM. The TGI (HOP-18 NSCLC) was > 100 µM, the TGI (KM20L2 colon) was > 100 µM and the TGI (LOX IMVI melanoma) was > 100 µM. For the same molecule, the TGI (M19-MEL melanoma) was > 100 µM, the TGI (NCI-H226 lung) was > 100 µM and the TGI (RPMI-8226 leukemia) was > 100 µM. The TGI (SNB-75 CNS) was > 100 µM and the TGI (XF 498 CNS) was > 100 µM.

For `Cc1ccc(C(=O)OC(C)C)cc1N=NN(C)C`, the TGI (COLO 205 colon) was > 100 µM, the TGI (DLD-1 colon) was > 100 µM and the TGI (DMS 273 small cell lung) was > 100 µM. For the same molecule, the TGI (KM20L2 colon) was > 100 µM, the TGI (LOX IMVI melanoma) was > 100 µM and the TGI (M19-MEL melanoma) was > 100 µM. The TGI (MDA-N) was > 100 µM, the TGI (NCI/ADR-RES ovarian) was > 100 µM and the TGI (RPMI-8226 leukemia) was > 100 µM. For the same molecule, the TGI (SNB-78 CNS) was > 100 µM and the TGI (T-47D breast) was > 100 µM.

`N#C/C(=C\c1ccc(F)cc1)c1nc2ccccc2c(=O)[nH]1` was tested, and the TGI (COLO 205 colon) was > 100 µM, the TGI (LOX IMVI melanoma) was > 100 µM and the TGI (MDA-N) was > 100 µM. The TGI (NCI-H226 lung) was > 100 µM, the TGI (NCI/ADR-RES ovarian) was > 100 µM and the TGI (RPMI-8226 leukemia) was > 100 µM. The TGI (SNB-75 CNS) was 74.5 µM and the TGI (T-47D breast) was > 100 µM.

With `CCCCC1C(=O)N(c2ccc(S(=O)(=O)Nc3ccccn3)cc2)N(c2ccc(O)c(C(=O)O)c2)C1=O` (stereo not drawn) the TGI (COLO 205 colon) was > 100 µM, the TGI (LOX IMVI melanoma) was > 100 µM and the TGI (MDA-N) was > 100 µM. The TGI (NCI-H226 lung) was > 100 µM, the TGI (NCI/ADR-RES ovarian) was > 100 µM and the TGI (RPMI-8226 leukemia) was > 100 µM. The TGI (SNB-75 CNS) was > 100 µM and the TGI (T-47D breast) was > 100 µM.

In the case of `CC(O)CCNC(=O)Nc1c(C(F)(F)F)cc(-c2ccccc2)[nH]c1=O` (stereo not drawn), the TGI (COLO 205 colon) is reported as > 100 µM, the TGI (LOX IMVI melanoma) is reported as > 100 µM and the TGI (MDA-N) is reported as > 100 µM. The TGI (NCI-H226 lung) was > 100 µM, the TGI (NCI/ADR-RES ovarian) was > 100 µM and the TGI (RPMI-8226 leukemia) was > 100 µM. The TGI (SNB-75 CNS) was > 100 µM and the TGI (T-47D breast) was > 100 µM.

In the case of `Cc1ccc(-c2cn3c(nc4ccccc43)c(-c3ccccc3)n2)cc1`, the TGI (COLO 205 colon) is reported as > 100 µM, the TGI (LOX IMVI melanoma) is reported as > 100 µM and the TGI (MDA-N) is reported as > 100 µM. The TGI (NCI-H226 lung) was > 100 µM, the TGI (NCI/ADR-RES ovarian) was > 100 µM and the TGI (RPMI-8226 leukemia) was > 100 µM. The TGI (SNB-75 CNS) was > 47.7 µM and the TGI (T-47D breast) was > 91.7 µM.

`CC1=C(C(=O)NNC(=O)C(N)=O)CC(C(=O)NNC(=O)C(N)=O)=C(C)N1` was tested, and the TGI (COLO 205 colon) was > 100 µM, the TGI (LOX IMVI melanoma) was > 100 µM and the TGI (MDA-N) was > 100 µM. The TGI (NCI-H226 lung) was > 100 µM, the TGI (NCI/ADR-RES ovarian) was > 100 µM and the TGI (RPMI-8226 leukemia) was > 100 µM. The TGI (SNB-75 CNS) was > 100 µM and the TGI (T-47D breast) was > 100 µM.

With `N#Cc1nc(Sc2cnsn2)c(Sc2cnsn2)nc1C#N` the TGI (COLO 205 colon) was 19 µM, the TGI (LOX IMVI melanoma) was 50.2 µM and the TGI (MDA-N) was 49.6 µM. The TGI (NCI-H226 lung) was 43.7 µM, the TGI (NCI/ADR-RES ovarian) was 54.3 µM and the TGI (RPMI-8226 leukemia) was > 100 µM. For the same molecule, the TGI (SNB-75 CNS) was 48.8 µM and the TGI (T-47D breast) was > 27.6 µM.

`COc1ccc(/C=N/NC(=O)c2ccccc2Nc2ccccc2C(=O)N/N=C/c2ccc(OC)cc2)cc1` was tested, and the TGI (COLO 205 colon) was > 100 µM, the TGI (LOX IMVI melanoma) was > 100 µM and the TGI (MDA-N) was > 100 µM. For the same molecule, the TGI (NCI-H226 lung) was > 100 µM, the TGI (NCI/ADR-RES ovarian) was > 100 µM and the TGI (RPMI-8226 leukemia) was > 100 µM. The TGI (SNB-75 CNS) was > 100 µM and the TGI (T-47D breast) was > 100 µM.

For `c1cc2[nH]snc2c2cncc12`, the TGI (COLO 205 colon) was > 100 µM, the TGI (LOX IMVI melanoma) was > 100 µM and the TGI (MDA-N) was > 100 µM. The TGI (NCI-H226 lung) was > 100 µM, the TGI (NCI/ADR-RES ovarian) was > 100 µM and the TGI (RPMI-8226 leukemia) was > 100 µM. For the same molecule, the TGI (SNB-75 CNS) was > 100 µM and the TGI (T-47D breast) was > 100 µM.
